{"source": "patent US20040198838A1", "about": "“Pharmaceutical compositions containig terbinafin and use thereof” (priority 2001, published 2004)", "origin": "cited, not measured here", "key": {"[1]": {"target": "CYP2D6 (Homo sapiens, UniProt P10635)", "sequence (P10635 whole entry)": "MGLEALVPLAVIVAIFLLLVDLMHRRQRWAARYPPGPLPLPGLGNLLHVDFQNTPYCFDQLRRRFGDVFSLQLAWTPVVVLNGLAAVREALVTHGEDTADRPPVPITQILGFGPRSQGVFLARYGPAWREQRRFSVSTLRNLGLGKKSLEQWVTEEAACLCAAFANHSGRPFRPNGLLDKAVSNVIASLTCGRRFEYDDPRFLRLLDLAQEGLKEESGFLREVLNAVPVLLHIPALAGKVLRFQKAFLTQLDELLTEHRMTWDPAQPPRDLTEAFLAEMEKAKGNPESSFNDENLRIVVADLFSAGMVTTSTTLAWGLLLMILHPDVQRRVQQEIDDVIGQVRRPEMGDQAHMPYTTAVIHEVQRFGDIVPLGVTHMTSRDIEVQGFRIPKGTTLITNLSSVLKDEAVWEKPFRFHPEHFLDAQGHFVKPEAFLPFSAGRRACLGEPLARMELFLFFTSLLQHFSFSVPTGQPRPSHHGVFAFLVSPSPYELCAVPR"}}}
{"smiles": "CN(C/C=C/C#CC(C)(C)C)Cc1cccc2ccccc12", "note": "[terbinafine, Terbinafine]", "values": [{"measurement": "effective half-life", "setting": "in vivo", "result": "about 36 hours"}, {"measurement": "reduction of clearance", "setting": "patients with renal impairment (creatinine clearance up to 50 ml/min) or hepatic cirrhosis", "result": "approximately 50%"}, {"measurement": "area under the curve over 24 hours (AUC)", "setting": "single 250 mg terbinafine dose", "result": "about 4.56 μg.hour/ml"}, {"measurement": "peak drug plasma concentration (Cmax)", "setting": "single 250 mg terbinafine dose", "result": "about 1 μg/ml"}, {"measurement": "time to peak drug plasma concentration", "setting": "single 250 mg terbinafine dose", "result": "≤ 2", "unit": "h"}, {"measurement": "factor of AUC increase in steady state versus single dose", "setting": "steady state", "result": 2.5}, {"measurement": "increase of peak blood concentration (Cmax) in steady state versus single dose", "setting": "steady state", "result": 25, "unit": "%"}, {"measurement": "change in AUC when administered with a meal", "setting": "with a meal", "result": "moderate increase"}, {"measurement": "inhibition of CYP2D6", "setting": "[1]", "result": "potent inhibitor"}]}
